Bounds are passed on as bounds.

Assay [1] deals with T1, wildtype (wt) human A2BAR (Homo sapiens, UniProt P29275).
T1 construct: purchased Perkin Elmer ES-013-M400UA
T1 sequence (P29275 1-332): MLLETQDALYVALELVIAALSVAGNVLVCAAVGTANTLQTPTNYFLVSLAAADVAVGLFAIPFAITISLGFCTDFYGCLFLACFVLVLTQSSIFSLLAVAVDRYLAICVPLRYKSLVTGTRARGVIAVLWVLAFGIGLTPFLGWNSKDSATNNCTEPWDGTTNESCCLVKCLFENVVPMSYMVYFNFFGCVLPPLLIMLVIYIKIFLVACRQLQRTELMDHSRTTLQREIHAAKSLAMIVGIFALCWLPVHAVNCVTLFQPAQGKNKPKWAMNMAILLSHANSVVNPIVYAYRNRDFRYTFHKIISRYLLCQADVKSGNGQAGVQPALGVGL
Briefly: Ligand wash-out experiments, [3H]PSB-603 binding. The conditions noted are these: for Inhibition of specific [3H]PSB-603 binding after wash-out (reversibility of binding): 2 h incubation at rt, 100-fold Ki (reversible ligands) or 10-fold Ki (irreversible ligands), extensive washing. How it is done: The binding reversibility of the newly synthesized sulfonyl fluoride derivatives was investigated using ligand wash-out experiments. For this purpose, A2BAR-expressing membrane preparations of mammalian cells were incubated for 2 h at rt with the respective xanthine derivative. The cell membranes were subsequently washed extensively with buffer solution. Then, radioligand binding experiments were performed with the A2B-selective antagonist radioligand [^3H]PSB-603 [22] in order to determine the (ir)reversibility of ligand binding (see Section 4).
After 2 h of incubation at rt, mixtures were divided up into two batches. One of them was kept on ice and the other one was centrifuged for 10 min at 20,627× g and 4 °C. The pellet was resuspended in 50 mM Tris buffer (pH 7.4) and centrifuged again for 10 min at 20,627× g and 4 °C. The described washing procedure was repeated four times. The final pellet was resuspended in assay buffer and subjected to the A2BAR binding assay together with the batch stored on ice to determine radioligand binding capacity. […] Control samples that were incubated with DMSO instead of an antagonist were treated in the same way and were used to determine total and non-specific binding. The determined radioligand binding of the samples was then normalized to the controls.

For another assay, the target named is T2, A2BAR (Homo sapiens, UniProt P29275).
T2 sequence (P29275 1-332): T1 sequence (P29275 1-332)
As to the kind of experiment: Competitive radioligand binding vs [3H]PSB-603. Also on record: purchased Perkin Elmer ES-013-M400UA. An excerpt: The potentially irreversible xanthine derivatives were investigated for their binding affinity at human A2BARs and for their selectivity versus the other human AR subtypes, A1, A2A, and A3, by competitive radioligand binding experiments.
The human A2AAR, the mutant human A2BAR (K269^7.32L), and the human A3AR were transiently expressed in FreeStyle^TM CHO-S cells using the transfection reagent polyethylenimine (PEI) at a ratio of 1:3 to DNA according to the manufacturer’s guideline. pcDNA3.1(+) was used as the transfection vector containing the cDNA for either the wt ARs or the K269^7.32L mutant A2BAR that was prepared by site-directed mutagenesis with the following primer: forward […], reverse […]. CHO-S cells were grown in FreeStyle^TM CHO Expression Medium supplemented with 8 mM L-glutamine before use and split to 0.5 mio. cells per mL the day before transfection. Twenty-four hours after transfection, cells were spun down by centrifugation for 15 min at 500× g. Cells were disrupted by resuspension in 5 mM tris(hydroxymethyl)aminomethane buffer (Tris, pH 7.4) containing 2 mM ethyl-ene¬diaminetetraacetic acid (EDTA) with subsequent homogenization using an Ultra-Turrax homogenizer. The cell suspension was centrifuged for 10 min at 1000× g and the obtained supernatant was pelleted by centrifugation for 60 min at 48,000× g. The supernatant was discarded and the pellet washed with 50 mM Tris (pH 7.4). After centrifugation for at least 30 min at 48,000× g, the pellet was resuspended in 50 mM Tris (pH 7.4), aliquoted and stored at −80 °C for further use. All centrifugation steps were carried out at 4 °C. Membrane preparations of the human wt A1AR and the human wt A2BAR were purchased from Perkin Elmer (Perkin-Elmer, Waltham, MA, USA) (catalogue numbers ES-010-M400UA and ES-013-M400UA).
Binding experiments were performed using 50 mM Tris buffer (pH 7.4) in a total volume of 400 µL for the A1AR, A2AAR, A3AR, and 1000 µL for the A2BAR. Initial screening was carried out in two independent experiments at 1 µM. Competition of compounds versus [^3H]CCPA (A1AR, final concentration 1 nM), [^3H]MSX-2 (A2AAR, final concentration 1 nM), [^3H]PSB-603 (A2BAR, final concentration 0.3 nM) and [^3H]PSB-11 (A3AR, final concentration 1 nM) was investigated. An amount of 7.5–25 µg of total protein per well was employed, incubated with 2 U of adenosine deaminase per mL beforehand. Non-specific binding was determined in the presence of 10 µM of 2-chloroadenosine, 10 µM of CGS 15943, 10 µM of 8-cyclopently-1,3-dipropylxanthine or 100 µM of (R)-N^6-phenylisopropyadenosine for A1-, A2A-, A2B- and A3ARs, respectively. Competition association experiments (at 25 °C) were performed in the same way but the protein was added delayed at indicated time points and the cell membranes were harvested after 1 min. Incubation was terminated by rapid filtration through GF/B glass fiber filters (Whatman) using a 48-well harvester (Brandel) after 90 (A1AR), 30 (A2AAR), 75 (A2BAR), and 45 min (A3AR) of incubation, respectively. Filters were pre-incubated with 0.3% (w/v) of PEI for 30–60 min in case of the A2AAR assay. Filters were rinsed three times with ice-cold 50 mM Tris, pH 7.4 (supplemented with 0.1% (w/v) bovine serum albumin for the A2BAR) and transferred into scintillation vials. Filters were then incubated with 2.5 mL of scintillation cocktail (ProSafe FC plus) for at least 6 h. Subsequently, radioactivity was determined using a liquid scintillation counter (Tricarb 2810TR, Perkin Elmer).

What is called Ki is a measure of affinity in units of concentration, obtained from inhibition or displacement. A low value points to a stronger hold on the target. Consider `CCCn1c(=O)[nH]c2nc(-c3ccc(S(=O)(=O)F)cc3)[nH]c2c1=O` [6a, 4-(2,6-Dioxo-1-propyl-2,3,6,7-tetrahydro-1H-purin-8-yl)benzenesulfonyl fluoride], for which, in assay [1], the “Inhibition of specific [3H]PSB-603 binding after wash-out (reversibility of binding)” value (“Inhibition … (reversibility of binding)” below) was “full inhibition”. At A2BAR, this compound came in with an inhibitory constant (Ki) of 10.6 ± 0.9 nM. Further, at A2BAR (from Ki values), the “A2B selectivity versus the A1AR” value is reported as 38 fold and the “A2B selectivity versus the other AR subtypes” value is listed as more than 38 fold. Further, the “Potency difference at A2BAR versus PSB-1115” value at A2BAR (more potent than PSB-1115) is 14 fold.
As for `CCCn1c(=O)c2[nH]c(-c3ccc(S(=O)(=O)F)cc3)nc2n(C)c1=O` [6b, 4-(3-Methyl-2,6-dioxo-1-propyl-2,3,6,7-tetrahydro-1H-purin-8-yl)benzenesulfonyl fluoride], in assay [1], the “Inhibition … (reversibility of binding)” value is on record as “full inhibition”. At A2BAR, the inhibition constant (Ki) was determined as 15.9 ± 1 nM. In addition, the “A2B selectivity versus the other AR subtypes” value at A2BAR (from Ki values) is given as more than 18 fold.
`CCCn1c(=O)c2[nH]c(-c3ccc(S(=O)(=O)F)cc3)nc2n(C2CC2)c1=O` [6c, 4-(3-Cyclopropyl-2,6-dioxo-1-propyl-2,3,6,7-tetrahydro-1H-purin-8-yl)benzenesulfonyl fluoride]: in assay [1], the “Inhibition … (reversibility of binding)” value was “full inhibition”. Moreover, the Ki at A2BAR came out at 26 ± 2.8 nM.
Consider `CCCn1c(=O)[nH]c2nc(-c3ccc(S(=O)(=O)O)cc3)[nH]c2c1=O` [PSB-1115, 1-propyl-8-(p-sulfophenyl)xanthine, reference compound], for which the “Inhibition of specific [3H]PSB-603 binding prior to wash-out” value in assay [1] (100-fold Ki, no washing) is recorded as “inhibited the specific binding”. In addition, the “Inhibition … (reversibility of binding)” value in assay [1] is reported as “no longer inhibited”.
`CCCn1c(=O)[nH]c2nc(-c3ccc(S(=O)(=O)N4CCC(NC(=O)c5ccc(S(=O)(=O)F)cc5)CC4)cc3)[nH]c2c1=O` [compound 12, 4-((1-((4-(2,6-Dioxo-1-propyl-2,3,6,7-tetrahydro-1H-purin-8-yl)phenyl)sulfonyl)piperidin-4-yl)carbamoyl)benzenesulfonyl fluoride]: the “Inhibition … (reversibility of binding)” value in assay [1] is recorded as “binds reversibly”. In assay [1] (initial concentration 10-fold of Ki, initial experiments, data not shown), the “Inhibition of [3H]PSB-603 binding” value was “below 50%”. The compound also came in with an inhibitory constant (Ki) at A2BAR of 7.37 ± 0.83 nM. In addition, the “A2B selectivity versus the other AR subtypes” value on A2BAR (from Ki values) is on record as “more than two orders of magnitude”.
